These results are taken from patent US10336746B1, “RAD51 inhibitors” (Cyteir Therapeutics, Inc., priority 2017, dated 2019).

Broadly, the EC50 is the concentration that produces a half-maximal response. The low end stands for a more potent agent, the high end for a less potent agent.

Test [1] concerns WI-38 cells (AID negative). Nature of the test: Primary screening cell killing assay repeated in WI-38 cells (AID negative). The settings on record: Homo sapiens, 168 h, cell death on Day 7, Cell-Titer Glo. It counts as cell-based. The method, then: (§1) Primary screening was a phenotypic screen that utilized the synthetic lethal interaction between AID and RAD51 to identify compounds that were both potent and on target. AID expressing cells are dependent upon RAD51 for survival; inhibiting RAD51 in AID positive cells results in a cytotoxic effect.
Percent cell death and EC50 values were calculated by comparing the cell viability of the compound treated wells to the non-treated wells. Normalized RLU values were obtained by subtracting the media well values from each of the wells in the same column, and then dividing that value by the DMSO treated cells values. The percent kill was then calculated by subtracting the normalized RLU value from 1 and multiplying by 100. The average normalized percent kill value and standard error of the mean was then calculated. The kill values were then inputted into Prism with the corresponding standard errors. In Prism a non-linear regression line was plotted with the data points using a semi-log scale, and the EC50 value was calculated.

The test system of test [2] is Daudi cell line (AID positive). In words: Primary screening cell killing assay, Daudi cell line (AID positive). It counts as cell-based. The settings on record: Homo sapiens, 168 h, cell death on Day 7, Cell-Titer Glo. As for the experimental part: as §1
The first step was to set up a cell killing assay in the Daudi cell line (AID positive). A 96 well u-bottom plate was prepared by writing the experiment number, plate number, date and initials in the top right corner of the plate lid. With a sterile 300 ml reservoir, and 25 ml serological pipette, evaporation buffer media was pipetted into reservoir in 25 ml increments. Using the liquid handler, 150 ul of evaporation buffer media was pipetted from reservoir into rows A and H, and Columns 1 and 12 of the 96 well u-bottom plate. Cell cultures were counted to obtain the density of cells per ml, and the culture viability. The cell density information was used to obtain 1,000,000 cells from culture using a 5 mL serological pipette into an epi tube. The cell density information from the culture was used to calculate the number of cells and volume of media needed for the assay to seed 1250 cells in 130 ul of media per available culture well in the 96 well u-bottom plate. Rows B through F were used for cells (50 wells in total), with row G left for an empty media control. The calculation was overestimated by 10 mL to account for the dead volume in the 300 ml reservoir. Once the media volume was calculated, the appropriate volume of media was pipetted in 25 mL increments into the 250 mL bottle using a 25 mL serological pipette. The 250 ml bottle was capped tightly, and placed into a 37° C. water bath for 2 minutes. While the culture media was warming, 10 mL of fresh media was pipetted from the 500 mL culture media bottle into a sterile 25 mL reservoir. Using the Eppendorf multichannel pipette, 130 ul of media was pipetted from the 25 mL reservoir into row G of the 96 well u-bottom plate. Once the 250 mL bottle of media was warmed, the volume of culture needed was pipetted into the bottle, and mixed gently with a 25 mL serological pipette as to not create bubbles, and then the contents of the bottle were pipetted into a new 300 mL reservoir. Using the liquid handler, 130 ul of culture was pipetted from the 300 mL reservoir into rows B through F of the 96 well u-bottom plate. Once the culture was added, the plate was placed into a 37° C. incubator until the compound master plate was prepared for use.
Two 96 well u-bottom plates were prepared by writing the master plate name in the upper right corner of the plate lid. Labeling one DMSO master and the other Media Master. The compounds of interest were obtained from the laboratory freezer, and placed into a 25 well storage box with a lid, and set the box aside. The compounds were vortexed after thawing but before use. Using an automatic multichannel pipette, 20 ul of 100% DMSO was pipetted into wells B3-B11 through G3-G11 of the DMSO master plate. For each compound on the master plate, 50 ul of the compound were pipetted in the appropriate well of row 2 (reference plate map to determine appropriate well). A serial dilution was prepared beginning by aspirating 20 ul from row 2 and mixing with row 3, repeating until row 11 was reached. Using the liquid handler, 194 ul of Daudi media was dispensed into wells B2-B11 through G2-G11 of the Media master plate. Using the liquid handler, 6 ul from the DMSO master plate was aspirated and dispensed into the media master plate, mixing 100 ul twice.
Compounds from master plate were then added to the culture plate. The culture plates were removed from the incubator, and set inside the biosafety cabinet. Using a liquid handler, 20 ul from wells B2 to B11 through G2 to G11 of master plate were aspirated, and dispensed into wells B2 to B11 through G2 to G11 of culture plate. This set was continued with each culture plate. […]

SMILES strings stand for the structures.

On to `CC(C)OC(=O)NC12CCC(c3ncc(-c4ccc(NC(=O)N[C@@H](C)c5ccccc5)cc4S(=O)(=O)NC(C)(C)C)s3)(CC1)CC2` [Ex. 13, isopropyl (S)-(4-(5-(2-(N-(tert-butyl)sulfamoyl)-4-(3-(1-phenylethyl)ureido)phenyl)thiazol-2-yl)bicyclo[2.2.2]octan-1-yl)carbamate], for which the concentration giving a half-maximal response (EC50) in test [1] is above 1 µM; in test [2] it was at most 0.1 µM.

Consider `CC(C)OC(=O)NC1CCC(c2ncc(-c3ccc(NC(=O)OCc4ccccc4)cc3S(=O)(=O)NC(C)(C)C)s2)CC1` (stereo not drawn) [Ex. 39, benzyl (3-(N-(tert-butyl)sulfamoyl)-4-(2-((1r,4r)-4-((isopropoxycarbonyl)amino)cyclohexyl)thiazol-5-yl)phenyl)carbamate], for which the EC50 is above 1 µM in test [1] and at most 0.1 µM in test [2].

For the compound `CC(C)OC(=O)NC1CCC(c2ncc(-c3ccc(NC(=O)OCc4ccccc4F)cc3S(=O)(=O)NC(C)(C)C)s2)CC1` (stereo not drawn) [Ex. 40, 2-fluorobenzyl (3-(N-(tert-butyl)sulfamoyl)-4-(2-((1r,4r)-4-((isopropoxycarbonyl)amino)cyclohexyl)thiazol-5-yl)phenyl)carbamate], the half-maximal effective concentration (EC50) in test [1] was above 1 µM; in test [2] it was at most 0.1 µM.

`CC(C)OC(=O)NC12CCC(c3ncc(-c4ccc(NC(=O)N[C@@H](C)c5ccccn5)cc4S(=O)(=O)NC(C)(C)C)s3)(CC1)CC2` [Ex. 15, isopropyl (S)-(4-(5-(2-(N-(tert-butyl)sulfamoyl)-4-(3-(1-(pyridin-2-yl)ethyl)ureido)phenyl)thiazol-2-yl)bicyclo[2.2.2]octan-1-yl)carbamate]: the EC50 in test [1] was above 1 µM; in test [2], at most 0.1 µM.

As to `CC(C)NC(=O)OC1CCN(c2ncc(-c3ccc(NC(=O)NCc4ccccc4)cc3S(=O)(=O)NC(C)(C)C)s2)CC1` [Ex. 3, [1-[5-[4-(benzylcarbamoylamino)-2-(tert-butylsulfamoyl)phenyl]thiazol-2-yl]-4-piperidyl] N-isopropylcarbamate], the EC50 in test [1] was above 1 µM; in test [2] it was at most 0.1 µM.

As to `CC(C)OC(=O)N[C@H]1CC[C@H](c2ncc(-c3ccc(NC(=O)OCc4ccccn4)cc3S(=O)(=O)NC(C)(C)C)s2)CC1` [Ex. 72, trans-2-pyridylmethyl N-[3-(tert-butylsulfamoyl)-4-[2-[4-(isopropoxycarbonylamino)cyclohexyl]thiazol-5-yl]phenyl]carbamate], the EC50 in test [1] is above 1 µM; in test [2], at most 0.1 µM.

With `CC(C)OC(=O)N[C@H]1CC[C@H](c2ncc(-c3ccc(NC(=O)NCc4ccccc4)cc3S(=O)(=O)NC(C)(C)CO)s2)CC1` [Ex. 74, trans-isopropyl N-[4-[5-[4-(benzylcarbamoylamino)-2-[(2-hydroxy-1,1-dimethyl-ethyl)sulfamoyl]phenyl]thiazol-2-yl]cyclohexyl]carbamate], the results for the EC50 in test [1] and in test [2] were above 1 µM and at most 0.1 µM, respectively.

Consider `CC(C)OC(=O)NC1CCC(c2ncc(-c3ccc(NC(=O)OCc4ccccn4)cc3S(=O)(=O)NC(C)(C)C)s2)CC1` (stereo not drawn) [Ex. 42, pyridin-2-ylmethyl (3-(N-(tert-butyl)sulfamoyl)-4-(2-((1r,4r)-4-((isopropoxycarbonyl)amino)cyclohexyl)thiazol-5-yl)phenyl)carbamate], for which the figures for the EC50 in test [1] and in test [2] were above 1 µM and at most 0.1 µM, respectively.

For `CC(C)NC(=O)OC12CCC(c3ncc(-c4ccc(NC(=O)NCc5ccccc5)cc4S(=O)(=O)NC(C)(C)C)s3)(CC1)CC2` [Ex. 61, [1-[5-[4-(benzylcarbamoylamino)-2-(tert-butylsulfamoyl)phenyl]thiazol-2-yl]-4-bicyclo[2.2.2]octanyl]N-isopropylcarbamate], the EC50 in test [1] and in test [2] was above 1 µM in each case.

On to `CC(C)OC(=O)Nc1ccc(-c2cnc(N3CC(NC(=O)OC(C)C)C3)s2)c(S(=O)(=O)NC(C)(C)C)c1` [Ex. 46, isopropyl N-[3-(tert-butylsulfamoyl)-4-[2-[3-(isopropoxycarbonylamino)azetidin-1-yl]thiazol-5-yl]phenyl]carbamate], for which the EC50 in test [1] and in test [2] was above 1 µM in each case.

On to `C[C@@H](NC(=O)Nc1ccc(-c2cnc(C3CCC(NC(=O)OC4COC4)CC3)s2)c(S(=O)(=O)NC(C)(C)C)c1)c1ccccc1F` (stereo partly drawn) [Ex. 54, oxetan-3-yl ((1R,4r)-4-(5-(2-(N-(tert-butyl)sulfamoyl)-4-(3-((R)-1-(2-fluorophenyl)ethyl)ureido)phenyl)thiazol-2-yl)cyclohexyl)carbamate], for which the EC50 in test [1] was above 1 µM; in test [2] it was at most 0.1 µM.

As to `CC(C)OC(=O)N[C@H]1CC[C@H](c2ncc(-c3ccc(NC(=O)O[C@@H](C)c4ccccc4)cc3S(=O)(=O)NC(C)(C)C)s2)CC1` [Ex. 71, trans-[(1S)-1-phenylethyl] N-[3-(tert-butylsulfamoyl)-4-[2-[4-(isopropoxycarbonylamino)cyclohexyl]thiazol-5-yl]phenyl]carbamate], the EC50 in test [1] is above 1 µM; in test [2] it was at most 0.1 µM.

As for `CC(C)OC(=O)Nc1ccc(-c2cnc(C3CC(NC(=O)OC(C)C)C3)s2)c(S(=O)(=O)NC(C)(C)C)c1` (stereo not drawn) [Ex. 65, isopropyl N-[3-(tert-butylsulfamoyl)-4-[2-[3-(isopropoxycarbonylamino)cyclobutyl]thiazol-5-yl]phenyl]carbamate], the EC50 was above 1 µM in test [1] and 0.1 to 1 µM in test [2].

Consider `CC(C)OC(=O)N[C@H]1CC[C@H](c2ncc(-c3ccc(NC(=O)OCc4ccccc4F)cc3S(=O)(=O)NC(C)(C)C)s2)CC1` [Ex. 70, trans-isopropyl N-[4-[5-[2-(tert-butylsulfamoyl)-4-[(2-fluorophenyl)methoxycarbonylamino]phenyl]thiazol-2-yl]cyclohexyl]carbamate], for which the EC50 in test [1] was above 1 µM; in test [2], at most 0.1 µM.

Take `CC(C)OC(=O)NC12CCC(c3ncc(-c4ccc(NC(=O)N[C@H](C)c5ccccn5)cc4S(=O)(=O)NC(C)(C)C)s3)(CC1)CC2` [Ex. 16, isopropyl (R)-(4-(5-(2-(N-(tert-butyl)sulfamoyl)-4-(3-(1-(pyridin-2-yl)ethyl)ureido)phenyl)thiazol-2-yl)bicyclo[2.2.2]octan-1-yl)carbamate]: the EC50 is above 1 µM in test [1] and at most 0.1 µM in test [2].

Take `CC(C)OC(=O)N[C@H]1CC[C@H](c2ncc(-c3ccc(NC(=O)N[C@H](C)c4ccccc4)cc3S(=O)(=O)NC(C)(C)C)s2)CC1` [Ex. 24]: the EC50 was above 1 µM in test [1] and at most 0.1 µM in test [2].

`CC(C)OC(=O)N[C@H]1CC[C@H](c2ncc(-c3ccc(NC(=O)N[C@@H](C)c4ccccn4)cc3S(=O)(=O)NC(C)(C)C)s2)CC1` [Ex. 32, isopropyl ((1S,4r)-4-(5-(2-(N-(tert-butyl)sulfamoyl)-4-(3-((S)-1-(pyridin-2-yl)ethyl)ureido)phenyl)thiazol-2-yl)cyclohexyl)carbamate]: the EC50 is above 1 µM in test [1] and at most 0.1 µM in test [2].

`CC(C)OC(=O)NC12CCC(c3ncc(-c4ccc(NC(=O)NCc5ccccn5)cc4S(=O)(=O)NC(C)(C)C)s3)(CC1)CC2` [Ex. 19, isopropyl (4-(5-(2-(N-(tert-butyl)sulfamoyl)-4-(3-(pyridin-2-ylmethyl)ureido)phenyl)thiazol-2-yl)bicyclo[2.2.2]octan-1-yl)carbamate]: the EC50 was above 1 µM in test [1] and at most 0.1 µM in test [2].
